The record followed here is ChEMBL document CHEMBL1138419 (Bioorg Med Chem Lett, 2007).

≈ marks a conversion by molar mass, not a printed value.

Data set [1] can be described thus: Aqueous solubility in PBS at pH 7.4. In kind it is physicochemical.
For data set [2], the target named is cGMP-specific 3',5'-cyclic phosphodiesterase (Bos taurus, UniProt Q28156). Kind of data set: Inhibition of bovine PDE5 after 24 hrs by HTRF.

As usually defined, the solubility is the dissolved amount per volume that the medium holds. Read a low solubility as little dissolved substance. One may read the IC50 as the point on the concentration scale where inhibition reaches its midpoint. A high value points to lower potency. `O=C1[C@H]2Cc3c([nH]c4ccccc34)[C@@H](c3ccc4c(c3)OCO4)N2C(=O)CN1c1ccccc1` registered a solubility in data set [1] of 2.4 µM (≈ 1.08 µg/mL). The compound further displayed an IC50 in data set [2] of 91 nM.
In data set [2], `COc1ccc(N2CC(=O)N3[C@H](c4ccc5c(c4)OCO5)c4[nH]c5ccccc5c4C[C@@H]3C2=O)cc1` had an IC50 of 16 nM.
The same measure, in the same setting: with `O=C1[C@H]2Cc3c([nH]c4ccccc34)[C@@H](c3ccc4c(c3)OCO4)N2C(=O)CN1c1cccs1` the figure was 57 nM; with `O=C1[C@H]2Cc3c([nH]c4ccccc34)[C@@H](c3ccc4c(c3)OCO4)N2C(=O)CN1c1ccsc1`, 18 nM.
`O=C1[C@H]2Cc3c([nH]c4ccccc34)[C@@H](c3ccc4c(c3)OCO4)N2C(=O)CN1c1cccc(Cl)c1` returned an IC50 in data set [2] of 141 nM.
Regarding `O=C1[C@H]2Cc3c([nH]c4ccccc34)[C@@H](c3ccc4c(c3)OCO4)N2C(=O)CN1c1ccc([N+](=O)[O-])cc1`, in data set [2], the IC50 was determined as 122 nM.
Turning to `O=C1[C@H]2Cc3c([nH]c4ccccc34)[C@@H](c3ccc4c(c3)OCO4)N2C(=O)CN1c1ccc(C(F)(F)F)cc1`, the IC50 in data set [2] is 377 nM.
`CCCCc1ccc(N2CC(=O)N3[C@H](c4ccc5c(c4)OCO5)c4[nH]c5ccccc5c4C[C@@H]3C2=O)cc1` registered an IC50 in data set [2] of 152 nM.
As for `O=C1[C@H]2Cc3c([nH]c4ccccc34)[C@@H](c3ccc4c(c3)OCO4)N2C(=O)CN1c1cccnc1`, the solubility in data set [1] worked out at 33 µM (≈ 14.9 µg/mL). The compound also yielded an IC50 in data set [2] of 28 nM.
In turn, `O=C1[C@H]2Cc3c([nH]c4ccccc34)[C@@H](c3ccc4c(c3)OCO4)N2C(=O)CN1c1cncnc1` returned a solubility in data set [1] of 25 µM (≈ 11.3 µg/mL). The half-maximal inhibitory concentration (IC50) in data set [2] was 53 nM.
As to `Cc1cccc(N2CC(=O)N3[C@H](c4ccc5c(c4)OCO5)c4[nH]c5ccccc5c4C[C@@H]3C2=O)c1`, in data set [2], the IC50 is 68 nM.
Consider `O=C1[C@H]2Cc3c([nH]c4ccccc34)[C@@H](c3ccc4c(c3)OCO4)N2C(=O)CN1c1ccc(Cl)cc1`, for which the IC50 in data set [2] was found to be 134 nM.
`CN1CC(=O)N2[C@H](c3ccc4c(c3)OCO4)c3[nH]c4ccccc4c3C[C@@H]2C1=O` showed a solubility in data set [1] of 9.7 µM (≈ 3.78 µg/mL).
